Laboratory results from ChEMBL document CHEMBL6071157, “Improved N-phenylpyrrolamide inhibitors of DNA gyrase as antibacterial agents for high-priority bacterial strains” (Eur J Med Chem, 2024).
Converted amounts (≈) assume the structure as drawn. The source made the active and inactive calls. The rule behind the calls is not given here.

Key:
[1] = test system: Escherichia coli; test: Inhibition of Escherichia coli DNA topoisomerase-IV assessed as residual activity at 10 uM by relaxation plate assay relative to control
[2] = test system: Staphylococcus aureus; test: Antibacterial against methicillin resistant Staphylococcus aureus ATCC 43300 assessed as inhibition of bacterial growth by broth microdilution method; format: functional; conditions: time 24 hrs
[3] = test system: Pseudomonas aeruginosa; test: Antibacterial activity against Pseudomonas aeruginosa ATCC 27853 assessed as inhibition of bacterial growth by broth microdilution metho; format: functional
[4] = test system: Staphylococcus aureus; test: Antibacterial activity against Staphylococcus aureus ATCC 29213 assessed as inhibition of bacterial growth by broth microdilution method; format: functional
[5] = target: T1, DNA topoisomerase 2-alpha (Homo sapiens, UniProt P11388); test: (§1) Inhibition of human DNA topoisomerase 2-alpha using linear pBR322 as substrate assessed as conversion of NADH to NAD+ by measuring residual activity at 40 uM preincubated for 10 to 15 mins in presence of pyruvate kinase/lactate dehydrogenase mix followed by ATP addition and measured after 30 mins by ATPase assay relative to control; conditions: time 40-55 min
[6] = test system: Escherichia coli; test: Antibacterial activity against Escherichia coli ATCC 25922 assessed as inhibition of bacterial growth by broth microdilution method; format: functional
[7] = target: DNA gyrase (Escherichia coli, UniProt P0AES4+P0AES6); test: Inhibition of Escherichia coli DNA gyrase by supercoiling plate assay; format: protein-complex assay
[8] = test system: Enterococcus faecium; test: Antibacterial activity against vancomycin-resistant Enterococcus faecium ATCC 700221 assessed as inhibition of bacterial growth by broth microdilution method; format: functional
[9] = test system: MCF7; test: Cytotoxicity against human MCF7 cells assessed as cell viability at 50 uM incubated for 72 hrs by CellTiter 96 aqueous one solution reagent based MTS assay relative to control; format: functional; conditions: read-out: Activity
[10] = test system: Staphylococcus aureus; test: Drug resistance, ratio of MIC for methicillin-resistant Staphylococcus aureus ATCC 43300 measured after 10 passages to MIC for methicillin-resistant Staphylococcus aureus during first exposure; format: functional
[11] = test system: Staphylococcus aureus; test: Bactericidal activity against Staphylococcus aureus ATCC 43300 at 8 times MIC measured after 8 hrs by time kill assay; format: functional, organism-based
[12] = test system: Staphylococcus aureus; test: Antibacterial against vancomycin-intermediate Staphylococcus aureus ATCC 700699 assessed as inhibition of bacterial growth by broth dilution method; format: functional
[13] = test system: Enterococcus faecalis; test: Antibacterial activity against Enterococcus faecalis ATCC 29212 assessed as inhibition of bacterial growth by broth microdilution method; format: functional
[14] = test system: Acinetobacter baumannii; test: Antibacterial activity against Acinetobacter baumannii ATCC 17978 assessed as inhibition of bacterial growth by broth microdilution method; format: functional
[15] = test system: Klebsiella pneumoniae; test: Antibacterial activity against Klebsiella pneumoniae ATCC 10031 assessed as inhibition of bacterial growth by broth microdilution method; format: functional
[16] = test system: Enterobacter cloacae; test: Antibacterial activity against Enterobacter cloacae subsp. cloacae ATCC 13047 assessed as inhibition of bacterial growth by broth microdilution method; format: functional
[17] = Inhibition of Escherichia coli DNA topoisomerase-IV relaxation plate assay
[18] = test system: Staphylococcus aureus; test: Antibacterial activity against methicillin resistant Staphylococcus aureus ATCC 43300 assessed as assessed as bacterial killing incubated for 24 hrs by time-kill kinetics assay; format: functional, organism-based
[19] = test system: Staphylococcus aureus; test: Antibacterial activity against methicillin resistant Staphylococcus aureus ATCC 43300 assessed as post antibiotic effect at 8 times of MIC incubated for 1 hrs and measured after 8 hrs; format: functional; conditions: time 9 hrs
[20] = target: T1, DNA topoisomerase 2-alpha; test: as §1, with “100” for “40”; conditions: time 40-55 min
[21] = test system: Staphylococcus aureus; test: Drug resistance, ratio of MIC for methicillin-resistant Staphylococcus aureus ATCC 43300 measured after 8 passages to MIC for methicillin-resistant Staphylococcus aureus during first exposure; format: functional
[22] = target: DNA gyrase (Staphylococcus aureus) (UniProt P0A0K8+P20831); test: Inhibition of Staphylococcus aureus DNA gyrase assessed as residual activity at 0.1 uM by supercoiling plate assay relative to control; format: protein-complex assay
[23] = target: T1, DNA topoisomerase 2-alpha; test: as §1, with “10” for “40”; conditions: time 40-55 min
[24] = target: DNA gyrase (Escherichia coli) (UniProt P0AES6+P0AES4); test: Inhibition of Escherichia coli DNA gyrase assessed as residual activity at 1 uM by supercoiling plate assay relative to control; format: protein-complex assay
[25] = test system: Staphylococcus aureus; test: Bactericidal activity against methicillin resistant Staphylococcus aureus ATCC 43300 at 8 times of MIC measured a 6 to 24 hrs by time-kill kinetic assay; format: functional, organism-based; conditions: time 6-24 hrs

T1 sequence (P11388 whole entry): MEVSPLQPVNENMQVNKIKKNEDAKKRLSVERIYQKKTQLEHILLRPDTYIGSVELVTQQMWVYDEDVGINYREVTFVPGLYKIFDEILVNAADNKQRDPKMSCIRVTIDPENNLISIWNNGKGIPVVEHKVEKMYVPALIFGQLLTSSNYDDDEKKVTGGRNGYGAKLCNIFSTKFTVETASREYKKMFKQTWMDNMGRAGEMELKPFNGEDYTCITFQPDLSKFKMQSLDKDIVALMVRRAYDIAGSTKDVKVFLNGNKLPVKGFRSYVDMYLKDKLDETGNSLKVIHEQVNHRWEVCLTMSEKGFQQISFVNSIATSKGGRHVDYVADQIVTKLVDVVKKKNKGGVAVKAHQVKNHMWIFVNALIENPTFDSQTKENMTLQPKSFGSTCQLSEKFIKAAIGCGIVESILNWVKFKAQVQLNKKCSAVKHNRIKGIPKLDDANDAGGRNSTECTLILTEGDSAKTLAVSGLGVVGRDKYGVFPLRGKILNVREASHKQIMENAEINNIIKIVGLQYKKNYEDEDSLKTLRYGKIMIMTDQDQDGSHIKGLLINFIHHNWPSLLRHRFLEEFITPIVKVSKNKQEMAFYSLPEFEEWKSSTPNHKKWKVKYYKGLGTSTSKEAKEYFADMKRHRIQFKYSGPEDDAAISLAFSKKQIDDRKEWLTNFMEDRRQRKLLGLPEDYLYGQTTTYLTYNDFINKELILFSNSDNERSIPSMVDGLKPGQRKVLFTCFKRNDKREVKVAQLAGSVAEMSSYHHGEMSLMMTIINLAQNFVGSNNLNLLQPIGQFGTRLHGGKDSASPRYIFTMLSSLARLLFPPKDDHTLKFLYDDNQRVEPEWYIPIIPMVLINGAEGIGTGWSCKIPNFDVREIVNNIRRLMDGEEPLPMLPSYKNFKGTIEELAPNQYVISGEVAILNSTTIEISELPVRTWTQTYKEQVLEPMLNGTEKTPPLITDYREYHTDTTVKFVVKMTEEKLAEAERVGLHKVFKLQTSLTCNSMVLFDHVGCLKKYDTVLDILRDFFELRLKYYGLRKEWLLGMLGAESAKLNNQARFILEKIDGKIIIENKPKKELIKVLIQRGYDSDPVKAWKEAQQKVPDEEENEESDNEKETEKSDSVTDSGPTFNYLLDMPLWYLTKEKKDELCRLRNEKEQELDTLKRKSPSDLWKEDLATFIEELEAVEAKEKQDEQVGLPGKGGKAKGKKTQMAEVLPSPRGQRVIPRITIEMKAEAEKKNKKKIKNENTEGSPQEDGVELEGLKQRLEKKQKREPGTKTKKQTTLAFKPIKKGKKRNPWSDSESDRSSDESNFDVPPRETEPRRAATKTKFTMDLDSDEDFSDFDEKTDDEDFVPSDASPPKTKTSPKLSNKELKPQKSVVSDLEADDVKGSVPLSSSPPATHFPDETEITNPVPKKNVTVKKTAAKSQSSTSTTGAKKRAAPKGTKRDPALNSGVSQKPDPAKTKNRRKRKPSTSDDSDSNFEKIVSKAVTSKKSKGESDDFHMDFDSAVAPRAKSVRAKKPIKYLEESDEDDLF
DNA gyrase (Staphylococcus aureus), sequence (P0A0K8 2-644 limits assumed): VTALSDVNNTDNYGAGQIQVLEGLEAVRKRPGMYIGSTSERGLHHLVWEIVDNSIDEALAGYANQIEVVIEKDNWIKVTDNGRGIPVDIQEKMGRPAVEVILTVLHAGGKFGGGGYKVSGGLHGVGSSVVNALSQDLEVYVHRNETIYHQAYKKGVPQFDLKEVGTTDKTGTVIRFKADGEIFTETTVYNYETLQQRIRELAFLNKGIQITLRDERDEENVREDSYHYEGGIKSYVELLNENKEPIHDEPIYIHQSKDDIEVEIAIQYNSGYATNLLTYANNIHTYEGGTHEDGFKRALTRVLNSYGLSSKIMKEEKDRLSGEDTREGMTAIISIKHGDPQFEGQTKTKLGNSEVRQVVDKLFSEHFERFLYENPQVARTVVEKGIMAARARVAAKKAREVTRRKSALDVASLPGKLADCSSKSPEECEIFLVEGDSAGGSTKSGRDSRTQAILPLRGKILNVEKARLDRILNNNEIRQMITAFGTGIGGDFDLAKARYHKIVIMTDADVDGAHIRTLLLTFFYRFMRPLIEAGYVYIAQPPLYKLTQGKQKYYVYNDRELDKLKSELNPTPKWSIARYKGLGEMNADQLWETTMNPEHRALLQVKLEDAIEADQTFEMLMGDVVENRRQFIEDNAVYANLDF
DNA gyrase (Staphylococcus aureus), sequence (P20831 whole entry partner): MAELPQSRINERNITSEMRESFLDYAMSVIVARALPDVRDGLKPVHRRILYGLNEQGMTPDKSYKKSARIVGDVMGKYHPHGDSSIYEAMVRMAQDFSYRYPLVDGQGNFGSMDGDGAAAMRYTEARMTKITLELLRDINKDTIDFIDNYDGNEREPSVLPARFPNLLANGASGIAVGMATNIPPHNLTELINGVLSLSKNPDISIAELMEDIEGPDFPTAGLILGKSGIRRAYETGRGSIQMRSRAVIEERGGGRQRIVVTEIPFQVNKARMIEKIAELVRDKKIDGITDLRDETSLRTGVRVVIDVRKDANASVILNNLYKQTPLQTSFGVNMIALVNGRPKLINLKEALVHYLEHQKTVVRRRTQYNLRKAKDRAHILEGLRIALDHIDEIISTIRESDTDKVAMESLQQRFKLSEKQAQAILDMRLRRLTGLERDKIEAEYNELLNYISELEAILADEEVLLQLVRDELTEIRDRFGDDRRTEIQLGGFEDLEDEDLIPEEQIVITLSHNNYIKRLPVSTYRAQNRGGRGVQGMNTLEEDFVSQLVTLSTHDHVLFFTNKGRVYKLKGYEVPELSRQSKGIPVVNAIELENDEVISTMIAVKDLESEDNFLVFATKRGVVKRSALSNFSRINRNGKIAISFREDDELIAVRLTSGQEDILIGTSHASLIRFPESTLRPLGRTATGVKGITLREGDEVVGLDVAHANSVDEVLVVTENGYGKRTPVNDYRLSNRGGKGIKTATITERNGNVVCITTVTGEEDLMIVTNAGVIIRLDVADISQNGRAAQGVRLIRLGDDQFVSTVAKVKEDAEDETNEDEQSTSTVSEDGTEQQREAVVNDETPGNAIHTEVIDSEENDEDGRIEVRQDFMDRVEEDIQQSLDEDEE

| Structure (SMILES) | Activity [1] | MIC [2] | MIC [3] | MIC [4] | Activity [5] | MIC [6] | IC50 [7] | MIC [8] | viability at 50 µM [9] | Ratio [10] | PAE [19] | Activity [20] | Ratio [21] | further results |
| --- | --- | --- | --- | --- | --- | --- | --- | --- | --- | --- | --- | --- | --- | --- |
| Cc1[nH]c(C(=O)Nc2ccc(-c3noc(=O)[nH]3)cc2N2CCOCC2)c(Cl)c1Cl | 76% | 2 µg/mL (≈ 4.56 µM) | > 32 µg/mL | 4 µg/mL (≈ 9.13 µM) | 119% | > 32 µg/mL | 13 nM | 0.5 µg/mL (≈ 1.14 µM) | 101% | – | – | – | – | – |
| Cc1[nH]c(C(=O)Nc2ccc(-c3noc(=O)[nH]3)cc2NC2CCN(C(=O)OC(C)(C)C)CC2)c(Cl)c1Cl | – | 0.5 µg/mL (≈ 0.907 µM) | > 64 µg/mL | 2 µg/mL (≈ 3.63 µM) | – | > 64 µg/mL | 6.92 nM | 0.063 µg/mL (≈ 0.114 µM) | 64% | 128 | 2 h | 98% | 4 | Activity [11]: Active; MIC [12]: < 0.031 µg/mL; MIC [13]: < 0.031 µg/mL; MIC [14]: > 64 µg/mL; MIC [15]: > 64 µg/mL; MIC [16]: > 64 µg/mL; IC50 [17]: 1680 nM; Activity [18]: Dose-Dependent Effect |
| Cc1[nH]c(C(=O)Nc2ccc(-n3nn[nH]c3=O)cc2N2CCC(NC(=O)OC(C)(C)C)CC2)c(Cl)c1Cl | 63% | – | – | – | – | – | 33 nM | – | – | – | – | 34% | – | Activity [22]: 65% |
| Cc1[nH]c(C(=O)Nc2ccc(-c3nnn[nH]3)cc2N2CCCC(CNC(=O)OC(C)(C)C)C2)c(Cl)c1Cl (stereo not drawn) | – | – | – | – | – | – | 280 nM | – | – | – | – | – | – | Activity [23]: 95% |
| Cc1nnc(-c2ccc(NC(=O)c3[nH]c(C)c(Cl)c3Cl)c(OC(C)C)c2)o1 | – | – | > 64 µg/mL | > 64 µg/mL | 115% | > 64 µg/mL | – | – | – | – | – | – | – | Activity [24]: 95% |
| O=C(O)c1cn(C2CC2)c2cc(N3CCNCC3)c(F)cc2c1=O [CIPROFLOXACIN] | – | – | – | – | – | – | – | – | – | 16 | 2 h | – | 8 | Activity [25]: Active |
